In PubChem BioAssay (NCI):
Several values for one entry are separate records, joined by “and”; a condition that tells them apart may be missing. Identical values can stand only once.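 Growth conditions: 96-well plates. Treatment: test compound, 48 hours, 5 concentrations. Analysis: linear interpolation between bracketing concentrations; unreached endpoints set to highest concentration. GI50 marks 50% less growth. TGI denotes the concentration required for complete inhibition of growth.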

Assays:
Assay in all cases: growth of human tumour cells (NCI), 48 h
[1] = test system: OVCAR-5 ovarian
[2] = test system: M14 melanoma
[3] = test system: SF-295 CNS
[4] = test system: NCI-H23 lung
[5] = test system: UO-31 renal
[6] = test system: K-562 leukemia
[7] = test system: LOX IMVI melanoma
[8] = test system: KM12 colon
[9] = test system: NCI-H226 lung
[10] = test system: HOP-62 NSCLC
[11] = test system: OVCAR-8 ovarian
[12] = test system: HCT-15 colon
[13] = test system: MDA-N
[14] = test system: SNB-19 CNS
[15] = test system: MCF7 breast
[16] = test system: BT-549 breast
[17] = test system: RXF 393 renal
[18] = test system: UACC-257 melanoma
[19] = test system: SNB-78 CNS
[20] = test system: SK-MEL-28 melanoma
[21] = test system: DMS 273 small cell lung
[22] = test system: NCI-H522 lung
[23] = test system: M19-MEL melanoma
[24] = test system: SNB-75 CNS
[25] = test system: MOLT-4 leukemia
[26] = test system: NCI/ADR-RES ovarian
[27] = test system: DU-145 prostate
[28] = test system: IGROV1 ovarian
[29] = test system: CAKI-1 renal
[30] = test system: HS 578T breast
[31] = test system: 786-0 renal
[32] = test system: T-47D breast
[33] = test system: RPMI-8226 leukemia

**Q.** COC1C(O)C(C)OC(OC2C(Oc3cccc4c(O)c5c(=O)oc6ccc(C)c7c(=O)oc(c34)c5c67)OC(C)C3O[C@H](c4ccccc4)OC32)C1O (some centres undefined) was tested. Which TGI [1] did it give?
**A.** 12700 nM

**Q.** And the GI50 [2]?
**A.** 514 nM

**Q.** What about the TGI [2] of the same molecule?
**A.** 6480 nM

**Q.** What about the TGI [3] of the same molecule?
**A.** 3970 nM

**Q.** What about the GI50 [4] of the same molecule?
**A.** 320 nM and 200 nM

**Q.** What about the TGI [4] of the same molecule?
**A.** 4750 nM

**Q.** And the TGI [5]?
**A.** 2430 nM

**Q.** And the GI50 [6]?
**A.** 309 nM and 79.8 nM

**Q.** And the TGI [6]?
**A.** 23200 nM

**Q.** And the GI50 [7]?
**A.** 199 nM and 48 nM

**Q.** And the TGI [7]?
**A.** 1720 nM

**Q.** And the GI50 [8]?
**A.** 331 nM and 312 nM

**Q.** And the TGI [8]?
**A.** 8490 nM

**Q.** What about the GI50 [9] of the same molecule?
**A.** 186 nM

**Q.** What about the TGI [9] of the same molecule?
**A.** 836 nM

**Q.** And the GI50 [10]?
**A.** 150 nM

**Q.** What about the TGI [10] of the same molecule?
**A.** 2170 nM

**Q.** What about the TGI [11] of the same molecule?
**A.** 8230 nM

**Q.** And the GI50 [12]?
**A.** 516 nM

**Q.** And the TGI [12]?
**A.** 6650 nM

**Q.** What about the GI50 [13] of the same molecule?
**A.** 327 nM

**Q.** And the TGI [13]?
**A.** 10400 nM

**Q.** What about the TGI [14] of the same molecule?
**A.** 19200 nM

**Q.** What about the GI50 [15] of the same molecule?
**A.** 225 nM

**Q.** What about the TGI [15] of the same molecule?
**A.** 4120 nM

**Q.** What about the GI50 [16] of the same molecule?
**A.** 685 nM and 1500 nM

**Q.** And the TGI [16]?
**A.** 6270 nM

**Q.** What about the TGI [17] of the same molecule?
**A.** 5910 nM

**Q.** And the GI50 [18]?
**A.** 798 nM and 372 nM

**Q.** What about the TGI [18] of the same molecule?
**A.** 3860 nM

**Q.** What about the TGI [19] of the same molecule?
**A.** 4730 nM

**Q.** And the TGI [20]?
**A.** 3920 nM

**Q.** And the TGI [21]?
**A.** 1590 nM

**Q.** What about the GI50 [22] of the same molecule?
**A.** 284 nM and 262 nM

**Q.** And the TGI [22]?
**A.** 6780 nM

**Q.** What about the TGI [23] of the same molecule?
**A.** 3560 nM

**Q.** What about the TGI [24] of the same molecule?
**A.** 7650 nM

**Q.** And the GI50 [25]?
**A.** 33.4 nM and 23.6 nM

**Q.** What about the TGI [25] of the same molecule?
**A.** 11500 nM

**Q.** And the TGI [26]?
**A.** 10800 nM

**Q.** What about the GI50 [27] of the same molecule?
**A.** 484 nM

**Q.** And the TGI [27]?
**A.** 3190 nM

**Q.** What about the TGI [28] of the same molecule?
**A.** 3420 nM

**Q.** What about the GI50 [29] of the same molecule?
**A.** 134 nM

**Q.** What about the TGI [29] of the same molecule?
**A.** 616 nM and 5280 nM

**Q.** And the TGI [30]?
**A.** 17900 nM

**Q.** What about the TGI [31] of the same molecule?
**A.** 7160 nM

**Q.** What about the GI50 [32] of the same molecule?
**A.** 483 nM

**Q.** And the GI50 [33]?
**A.** 115 nM
